Experimental data: US20230146455A1, “TREATMENT OF INFLAMMATORY DISEASES WITH PEPTIDES AND PHARMACEUTICAL COMPOSITIONS” (Yuyu Pharma, Inc., priority 2020, published 2023)
Values joined by “and” are separate entries in the source; they are usually repeats but may differ in a detail not shown here. Identical values can stand only once. Where a SMILES comes first, the peptide text is derived from it. [ ]: non-standard residue; d: D form. Hyp = O=C(O)[C@@H]1C[C@@H](O)CN1

Tests used:
[1] = tested on: IL-10; test: Example 9 Luminex, LPS hPBMCs: IL-10; format: cell-based, human; conditions: IL-10
Description: (§1) Treatment Human PBMCs were pretreated with YY-101, YDE-011 and YDE-043 or reference compound; Xiidra® at various concentration (ranging from 1 nM to 100 uM) for 2 h before stimulation. An equal volume of 0.5% DMSO was used as a vehicle control. Then, the cells were treated with LPS at 5 ug/ml. The supernatants from treated cells were harvested at 24 h and placed in a 96 well for Luminex cytokine & chemokine profiling using a Luminex 200 multiplex assay (Luminex; R&D system, USA).
(§2) The main study arm with triplicate wells per group in a 24-well plate: • 1. Blank • 2. PBMC: 0.5% DMSO • 3. PBMC+LPS (5 ug/ml) • 4. PBMC+YY-101 100 uM • 5. PBMC+YY-101 10 uM • 6. PBMC+YY-101 1 uM • 7. PBMC+YY-101 0.1 uM • 8. PBMC+YY-101 0.01 uM • 9. PBMC+LPS (5 ug/ml)+Xiidra®100 uM • 10. PBMC+LPS (5 ug/ml)+Xiidra® 10 uM • 11. PBMC+LPS (5 ug/ml)+Xiidra® 1 uM • 12. PBMC+LPS (5 ug/ml)+Xiidra®0.1 uM • 13. PBMC+LPS (5 ug/ml)+Xiidra®0.01 uM • 14. PBMC+LPS (5 ug/ml)+Xiidra®0.001 uM • 15. PBMC+LPS (5 ug/ml)+YY-101 100 uM • 16. PBMC+LPS (5 ug/ml)+YY-101 10 uM • 17. PBMC+LPS (5 ug/ml)+YY-101 1 uM • 18. PBMC+LPS (5 ug/ml)+YY-101 0.1 uM • 19. PBMC+LPS (5 ug/ml)+YY-101 0.01 uM • 20. PBMC+LPS (5 ug/ml)+YY-101 0.001 uM • 21. PBMC+LPS (5 ug/ml)+YDE-011 100 uM • 22. PBMC+LPS (5 ug/ml)+YDE-011 10 uM • 23. PBMC+LPS (5 ug/ml)+YDE-011 1 uM • 24. PBMC+LPS (5 ug/ml)+YDE-011 0.1 uM • 25. PBMC+LPS (5 ug/ml)+YDE-011 0.01 uM • 26. PBMC+LPS (5 ug/ml)+YDE-011 0.001 uM • 27. PBMC+LPS (5 ug/ml)+YDE-043 100 uM • 28. PBMC+LPS (5 ug/ml)+YDE-043 10 uM • 29. PBMC+LPS (5 ug/ml)+YDE-043 1 uM • 30. PBMC+LPS (5 ug/ml)+YDE-043 0.1 uM • 31. PBMC+LPS (5 ug/ml)+YDE-043 0.01 uM • 32. PBMC+LPS (5 ug/ml)+YDE-043 0.001 uM
(§3) Multiplex assay was used to measure 30 cytokines and chemokines. The 1:2, 1:10 and 1:200 diluted cell supernatant and serial dilution of the standard were dispensed into a 96 well plate at 50 ul/well. Then, the pre-mixed cocktail of antibody-coated magnetic beads was dispensed at 50 ul/well and incubated at room temperature for 2 h in a horizontal orbital microplate shaker at 800±500 rpm. The beads were washed using a magnetic device to prevent loss. The biotin-antibody was dispensed in 50 ul of each well and incubated at room temperature for 1 h in a shaker at 800±500 rpm. After washing, streptavidin-PE was added at 50 ul/well and incubated at room temperature for 30 min in a shaker under the same conditions. Finally, after washing, wash buffer (100 ul/well) was added to the plate and incubated in a shaker for 2 min. The Luminex™ 200 setting were set according to the manufacturer's protocol. The data was calculated with a standard five-parameter logistic nonlinear regression analysis of the data (xPonent software 4.2, USA). The levels of cytokine/chemokine are normalized to the live cell counts (1×10^5 cells/mL) and presented as concentrations per mL (pg/mL or ng/mL).

[2] = tested on: GM-CSF; test: Example 9 Luminex, LPS hPBMCs: GM-CSF; format: cell-based, human
Description: as §1, §2, §3

[3] = PBMC + LPS(5 ug/ml) + test article 0.001 uM, Mean
[4] = PBMC + LPS(5 ug/ml) + test article 0.001 uM, single replicates
[5] = PBMC + LPS(5 ug/ml) + test article 0.01 uM, Mean
[6] = PBMC + LPS(5 ug/ml) + test article 0.01 uM, single replicates
[7] = PBMC + LPS(5 ug/ml) + test article 0.1 uM, Mean
[8] = PBMC + LPS(5 ug/ml) + test article 0.1 uM, single replicates
[9] = PBMC + LPS(5 ug/ml) + test article 1 uM, Mean
[10] = PBMC + LPS(5 ug/ml) + test article 1 uM, single replicates
[11] = PBMC + LPS(5 ug/ml) + test article 10 uM, Mean
[12] = PBMC + LPS(5 ug/ml) + test article 10 uM, single replicates
[13] = PBMC + LPS(5 ug/ml) + test article 100 uM, Mean
[14] = PBMC + LPS(5 ug/ml) + test article 100 uM, single replicates

## CC(C)C[C@H](NC(=O)[C@H](CCC(N)=O)NC(=O)CNC(=O)[C@@H]1C[C@@H](O)CN1)C(=O)NCC(=O)O [YDE-043] (H-[Hyp]GQLG-OH; N-terminus and C-terminus assumed)
[1]; [3]
  Concentration: 305.6 pg/mL
  conc/live cell (pg/10^5): 62.5 pg/10^5
[1]; [4]
  Concentration: 335.7 pg/mL and 298.3 pg/mL and 282.9 pg/mL
  conc/live cell (pg/10^5): 76.3 pg/10^5 and 49.7 pg/10^5 and 61.5 pg/10^5
[1]; [5]
  Concentration: 344.9 pg/mL
  conc/live cell (pg/10^5): 65.7 pg/10^5
[1]; [6]
  Concentration: 344.9 pg/mL and 362.6 pg/mL and 327.1 pg/mL
  conc/live cell (pg/10^5): 76.7 pg/10^5 and 54.9 pg/10^5 and 65.4 pg/10^5
[1]; [7]
  Concentration: 322.4 pg/mL
  conc/live cell (pg/10^5): 59.9 pg/10^5
[1]; [8]
  Concentration: 330.0 pg/mL and 312.8 pg/mL and 324.3 pg/mL
  conc/live cell (pg/10^5): 66.0 pg/10^5 and 55.9 pg/10^5 and 57.9 pg/10^5
[1]; [9]
  Concentration: 327.6 pg/mL
  conc/live cell (pg/10^5): 62.1 pg/10^5
[1]; [10]
  Concentration: 328.6 pg/mL and 312.8 pg/mL and 341.4 pg/mL
  conc/live cell (pg/10^5): 56.7 pg/10^5 and 65.2 pg/10^5 and 64.4 pg/10^5
[1]; [11]
  Concentration: 297.7 pg/mL
  conc/live cell (pg/10^5): 55.2 pg/10^5
[1]; [12]
  Concentration: 318.5 pg/mL and 277.0 pg/mL and 297.5 pg/mL
  conc/live cell (pg/10^5): 61.3 pg/10^5 and 51.3 pg/10^5 and 53.1 pg/10^5
[1]; [13]
  Concentration: 109.4 pg/mL
  conc/live cell (pg/10^5): 17.4 pg/10^5
[1]; [14]
  Concentration: 106.7 pg/mL and 112.1 pg/mL
  conc/live cell (pg/10^5): 17.2 pg/10^5 and 17.5 pg/10^5
[2]; [3]
  GM-CSF Concentration: 96.8 pg/mL
  GM-CSF conc/live cell: 19.6 pg/10^5
[2]; [4]
  GM-CSF Concentration: 85.3 pg/mL and 103.8 pg/mL and 101.3 pg/mL
  GM-CSF conc/live cell: 19.4 pg/10^5 and 17.3 pg/10^5 and 22.0 pg/10^5
[2]; [5]
  GM-CSF Concentration: 92.9 pg/mL
  GM-CSF conc/live cell: 17.9 pg/10^5
[2]; [6]
  GM-CSF Concentration: 94.6 pg/mL and 86.1 pg/mL and 97.9 pg/mL
  GM-CSF conc/live cell: 21.0 pg/10^5 and 13.1 pg/10^5 and 19.6 pg/10^5
[2]; [7]
  GM-CSF Concentration: 92.5 pg/mL
  GM-CSF conc/live cell: 17.1 pg/10^5
[2]; [8]
  GM-CSF Concentration: 87.8 pg/mL and 91.2 pg/mL and 98.4 pg/mL
  GM-CSF conc/live cell: 17.6 pg/10^5 (2×) and 16.3 pg/10^5
[2]; [9]
  GM-CSF Concentration: 91.6 pg/mL
  GM-CSF conc/live cell: 17.4 pg/10^5
[2]; [10]
  GM-CSF Concentration: 89.5 pg/mL and 92.1 pg/mL and 93.3 pg/mL
  GM-CSF conc/live cell: 15.4 pg/10^5 and 19.2 pg/10^5 and 17.6 pg/10^5
[2]; [11]
  GM-CSF Concentration: 101.0 pg/mL
  GM-CSF conc/live cell: 18.7 pg/10^5
[2]; [12]
  GM-CSF Concentration: 102.1 pg/mL and 96.3 pg/mL and 104.6 pg/mL
  GM-CSF conc/live cell: 19.6 pg/10^5 and 17.8 pg/10^5 and 18.7 pg/10^5
[2]; [13]
  GM-CSF Concentration: 137.2 pg/mL
  GM-CSF conc/live cell: 21.8 pg/10^5
[2]; [14]
  GM-CSF Concentration: 140.1 pg/mL and 134.4 pg/mL
  GM-CSF conc/live cell: 22.6 pg/10^5 and 21.0 pg/10^5
